According to patent US6291247A, “Methods of screening for factors that disrupt neurotrophin conformation and reduce neurotrophin biological activity” (priority 1996, dated 2001):
Bridges are numbered along the chain shown (N, C = ends).

Key:
PC12 cells = experiment: NGF-dependent survival of PC12 cells; type: cell-based, rat
Method: Effects of divalent ions on NGF mediated survival and toxicity was evaluated using a colorimetric assay for the lysosomal enzyme acid phosphatase to determine cell number (Connolly, D. T., Knight, M. B., Harakas, N. K, Wittwer, A. J. & Feder, J. Determination of the number of endothelial cells in culture using an acid phosphatase assay. Anal. Biochem. 152, 136-140 (1986); Ueda, Y., Walsh, E., Nakanishi H. & Yoshida, K. A. colorometric assay method for the evaluation of neurotrophic activity in vitro. Neurosci. Lett. 165, 203-207 (1994)). […] To evaluate toxicity, the cells were seeded and maintained without NGF in RPMI with 10% heat inactivated donor horse serum and 5% fetal calf serum in the presence of additives. Loss in viable cell number was determined and expressed as a percent of control. NGF rescues PC12 cells from cell death in serum-free medium(Greene, L. A. Nerve growth factor prevents the death and stimulates neuronal differentiation of clonal PC12 pheochromocytoma cells in serum-free medium. J. Cell Biol. 78, 747-755 (1978)). NGF-dependent survival was assessed by harvesting PC12 cells in balanced salt solution followed with washing by 4 cycles of suspension and centrifugation in serum-free RPMI prior to seeding in 96 well plates. After incubation with additives, medium was removed from the wells and cells washed once with 200 μl PBS. Buffer containing 0.1M sodium acetate pH 5.5, 0.1% Triton X-100 and 10 mM p-nitrophenyl phosphate (Sigma 104 phosphatase substrate) was added to each well (100 μl). Plates were incubated at 37° C. for 3 hours. The reaction was stopped by the addition of 10 μl/well of 1N sodium hydroxide and the color development measured at 405 nm using a microplate reader. The relationship between cell number and enzyme activity was linear over the range 1000 to 15,000 cells.
To explore the ability of other transition metals to influence the biological activities of NGF, a series of cations known to mimic in certain respects the binding of zinc to proteins were tested. […] For this reason these ions were not tested in NGF- dependant growth phenomena. […] As these studies appeared to indicate potentially complex results upon metal ions binding to NGF, a receptor crosslinking system where specific receptor types could be identified was utilized.

TrkA = target: T1, TrkA; experiment: Affinity cross-linking of 125I-NGF to TrkA on PC12 cells; type: binding, rat; conditions: 200 μM; result in words
T1 construct: Receptor cross-linking studies were performed on PC12 rat pheochromocytoma cells; endogenous in cells; host or cells: PC12 rat pheochromocytoma cells (ATCC CRL 1721)
T1 sequence (P01139 122-239): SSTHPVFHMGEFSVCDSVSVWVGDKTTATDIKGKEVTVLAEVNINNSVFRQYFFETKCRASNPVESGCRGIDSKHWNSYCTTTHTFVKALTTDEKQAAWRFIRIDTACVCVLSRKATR
Method: The ability of the peptides under study to interfere with binding of NGF to NGF receptors was evaluated by analysis of inhibition of the chemical cross-linking of ^251 I-NGF to the common neurotrophin receptor p75 (Chao, J. Neurobiol. 25:1373-1385 (1994)) and the specific NGF receptor TrkA (Barbacid, J. Neurobiol. 25: 1386-1403 (1994)). Immunoprecipitation and polyacrylamide gel electrphoresis of cross linked receptors allowed identification of both receptors, as shown in FIG. 7A. […] At concentrations of 200 μM, neither R11(l) nor R11(m) were able to inhibit greater than 50% of the observed ^125 I-labelling.
The ability of the peptides derived from the 68-58/108-110 region of NGF to antagonize NGF interaction with the p75 and TrkA receptors was determined The peptides tested were bicyclic (BC) 68-58/108-110, cyclic (C) 68-58/108-110, and linear (L) 68-58/108-110, each of which are illustrated in FIGS. 2 and 5D
Receptor cross-linking studies were performed on PC12 rat pheochromocytoma cells (ATCC CRL 1721; Greene et al., Proc. Natl. Acad. Sci. USA 73: 2424-2432 (1976)) which were maintained in RPMI1640 (Gibco) supplemented with 10% fetal calf serum (Gibco). […]

[1] = system: kindling-induced seizures; conditions: kindling animal model of epilepsy (Rashid et al. 1995); cited from earlier work

Row | Compound | NGF-mediated survival of PC12 cells (PC12 cells; 100 μM, serum-free, CaEDTA together with Zn2+) | Antagonism of NGF-dependent survival (PC12 cells; high (1 nM) or low (50 pM) NGF) | Survival @ 50 pM NGF (PC12 cells; rat, pc12 cells, 100 µM) [% control] | Survival @ 1 nM NGF (PC12 cells; rat, pc12 cells, 100 µM) [% control] | Covalent attachment of 125I-NGF to receptor (TrkA) (TrkA) | Inhibition of seizure and mossy fiber sprouting [1]
1 | [Zn+2] [Zn^2+] | reduced signifcantly | ability to antagonize the NGF-dependant survival | 67 ± 19 | 84 ± 39 |  | 
2 | NH2 -Cys-Gly-Ser-Glu-Val-Pro-Asn-Ser-Ala-Arg-Cys-Cys-Val-Cys-OH (H-CGSEVPNSARCCVC-OH; disulfide 1-14, 11-12) [R11, bicyclic peptide of NGF residues 68-58/108-110, two disulfide bonds] |  |  |  |  | effectively prevented the covalent attachment | inhibit both seizure and mossy fiber sprouting
